Read-outs that look alike come from different tables or passages of the source.
Tests used:
Format in all cases: cell-based
[1] = test system: MM.1S cells; test: Effect of the compound on MM.1S cell proliferation (MTS, 7 days); conditions: 7 days, MTS, Table 1, read-out: MM.1S Cells Inhibition Activity IC50
Procedure: MM.1S cells were cultured in 1640 medium supplemented with 10% fetal bovine serum, then collected and diluted to the desired cell concentration after 7 days of treatment. A total of 180 μL of cell suspension was added to each well in a 96-well cell plate, ensuring 20,000 cells per well. For the control group, 20 μL of 0.2% DMSO was added to each well. Compounds were diluted in a 5-step gradient from a 10 mM stock solution, and 20 μL of each dilution was added to the compound-containing wells (with a final DMSO concentration of 0.2%). The cells were incubated in a 37° C., 5% CO2 incubator for 7 days. Afterward, 20 μL of the MTS reagent (Promega, G5430) was added to each well, followed by incubation for 3-4 hours in a 37° C., 5% CO2 incubator. Absorbance at 490 nm was measured using a microplate reader, with 690 nm absorbance as the background. The final raw data was calculated as OD490-OD690. The compound inhibition rate was calculated using the formula: […]
The IC50 for the compound's proliferative inhibition was fitted using GraphPad Prism 5.0. The experiment was repeated three times, and the average and standard deviation were calculated using three parallel experiments per trial.

[2] = test system: Mino cells; test: Inhibition of cell proliferation of Mino cells (MTS, 3 days); conditions: 3 days, MTS, Table 2, read-out: Mino Cells Inhibition Activity IC50
Procedure: Mino cells were cultured with RPMI-1640 medium supplemented with 15% fetal bovine serum, and collected. The cell concentration was diluted according to a 3-day treatment period, and 90 μL of the cell suspension was added to each well of a 96-well plate, resulting in 8000 cells per well. For control wells, 10 μL of DMSO at a final concentration of 0.2% was added. The compounds were diluted in a 5-fold gradient from a 10 mM stock solution, and 10 μL of each compound solution was added to the experimental wells (with a final DMSO concentration of 0.2%). The cells were incubated in a 37° C., 5% CO2 incubator for 3 days. After preparing the reaction mixture using the MTS reagent kit (Promega, G5430), 20 μL was added to each well, and the cells were incubated for 3-4 hours at 37° C., 5% CO2.
The absorbance at 490 nm was read using a microplate reader, with the absorbance at 690 nm used as the background. The final raw data was calculated as OD490-OD690. The inhibition rate of the compounds was calculated using the formula: Inhibition rate=(OD DMSO−OD compound)/(OD DMSO−OD blank)×100%. The IC50 values for cell proliferation inhibition of the compounds were fitted using GraphPad Prism 5.0. The experiment was repeated three times, with the average and standard deviation calculated from three parallel experiments each time.

[3] = test system: MV-4-11 cells; test: Inhibition of MV-4-11 cell proliferation (MTS, 7 days); conditions: 7 days, MTS, Table 3, read-out: MV-4-11 Cells Inhibition Activity IC50
Procedure: MV-4-11 cells were cultured in IMDM with 10% fetal bovine serum, collected, and diluted to the appropriate cell concentration for a 7-day treatment period. A 96-well plate was used, and 180 μL of cell suspension was added to each well, resulting in a cell count of 2,000 per well. For the control wells, 20 μL of DMSO at a final concentration of 0.2% was added. The compounds were diluted from a 10 mM stock solution in a five-fold gradient, and 20 μL was added to the compound wells (with a final DMSO concentration of 0.2%). The cells were incubated in a 37° C., 5% CO2 incubator for 7 days. After preparing the reaction solution using the MTS reagent kit (Promega, G5430), 20 μL was added to each well, and the cells were incubated in the incubator for 3-4 hours. The absorbance at 490 nm was measured using a microplate reader, with the absorbance at 690 nm as the background value. The final data was calculated as OD490-OD690. The inhibition rate of the compounds was calculated using the formula: […]
The IC50 values for proliferation inhibition were calculated using GraphPad Prism 5.0. The experiments were repeated three times, with three parallel experiments for each, and the mean and standard deviation were calculated.
The cell activity test results are shown in Table 3: A indicates IC50<1 μM, B indicates 1 µM≤IC50≤20 μM, and C indicates IC50>20 μM.

SMILES	IC50 ([1]; Homo sapiens, MM1.S, 168 h) [nM]	IC50 ([2]; Homo sapiens, MINO, 72 h) [nM]	IC50 ([3]; Homo sapiens, MV4-11, 168 h) [nM]	IC50 [1] [nM]	IC50 [2] [nM]	IC50 [3] [nM]
O=C1CCC(N2C(=O)c3cccc(NCc4ncc(-c5cccc(Cl)c5)o4)c3C2=O)C(=O)N1 (stereo not drawn) [Example 65, 4-(((5-(3-Chlorophenyl)oxazol-2-yl)methyl)amino)-2-(2,6-Dioxopiperidin-3-yl)isoindolin-1,3-dione]	30 to 150	> 120	< 1000			
O=C1CCC(N2C(=O)c3cccc(NCc4ncc(-c5ccccc5Cl)o4)c3C2=O)C(=O)N1 (stereo not drawn) [Example 66, 4-(((5-(2-Chlorophenyl)oxazol-2-yl)methyl)amino)-2-(2,6-Dioxopiperidin-3-yl)isoindolin-1,3-dione]	30 to 150	> 120	< 1000			
O=C1CCC(N2C(=O)c3cccc(NCc4cnc(-c5ccccc5Cl)s4)c3C2=O)C(=O)N1 (stereo not drawn) [Example 69, 4-(((2-(2-Chlorophenyl)thiazol-5-yl)methyl)amino)-2-(2,6-Dioxopiperidin-3-yl)isoindolin-1,3-dione]	30 to 150	> 120	< 1000			
O=C1CCC(N2C(=O)c3cccc(NCc4cnc(-c5ccccc5F)o4)c3C2=O)C(=O)N1 (stereo not drawn) [Example 71, 2-(2,6-Dioxopiperidin-3-yl)-4-(((2-(2-Fluorophenyl)oxazol-5-yl)methyl)amino)isoindolin-1,3-dione]	< 15	< 60	< 1000			
O=C1CCC(N2C(=O)c3cccc(NCc4ncc(-c5ccc(F)cc5)o4)c3C2=O)C(=O)N1 (stereo not drawn) [Example 72, 2-(2,6-Dioxopiperidin-3-yl)-4-(((5-(4-Fluorophenyl)oxazol-2-yl)methyl)amino)isoindolin-1,3-dione]	< 15	> 120	< 1000			
O=C1CCC(N2C(=O)c3cccc(NCc4cnc(-c5ccc(Cl)c(Cl)c5)o4)c3C2=O)C(=O)N1 (stereo not drawn) [Example 73, 4-(((2-(3,4-Dichlorophenyl)oxazol-5-yl)methyl)amino)-2-(2,6-Dioxopiperidin-3-yl)isoindolin-1,3-dione]	15 to 30	> 120	< 1000			
O=C1CCC(N2C(=O)c3cccc(NCc4cnc(-c5cccc(Cl)c5Cl)o4)c3C2=O)C(=O)N1 (stereo not drawn) [Example 74, 4-(((2-(2,3-Dichlorophenyl)oxazol-5-yl)methyl)amino)-2-(2,6-Dioxopiperidin-3-yl)isoindolin-1,3-dione]	< 15	> 120	1000 to 20000			
O=C1CCC(N2C(=O)c3cccc(NCc4cnc(-c5ccc(Cl)cc5Cl)o4)c3C2=O)C(=O)N1 (stereo not drawn) [Example 76, 4-(((2-(2,4-Dichlorophenyl)oxazol-5-yl)methyl)amino)-2-(2,6-Dioxopiperidin-3-yl)isoindolin-1,3-dione]	30 to 150	> 120	< 1000			
O=C1CCC(N2C(=O)c3cccc(NCc4cnc(-c5cc(Cl)ccc5Cl)o4)c3C2=O)C(=O)N1 (stereo not drawn) [Example 77]	30 to 150	> 120	1000 to 20000			
C[C@@H]1CN(Cc2ncc(CNc3cccc4c3C(=O)N(C3CCC(=O)NC3=O)C4=O)o2)C[C@H](C)O1 (stereo partly drawn) [Example 79, 4-(((2-(((2R,6S)-2,6-Dimethylmorpholino)methyl)oxazol-5-yl)methyl)amino)-2-(2,6-Dioxopiperidin-3-yl)isoindoline-1,3-dione]	> 150	> 120	< 1000			
O=C1CCC(N2C(=O)c3cccc(NCc4cnc(CN5CC(N6CCOCC6)C5)o4)c3C2=O)C(=O)N1 (stereo not drawn) [Example 80]	> 150	> 120	< 1000			
N#Cc1ccc(N2CCN(Cc3ncc(CNc4cccc5c4C(=O)N(C4CCC(=O)NC4=O)C5=O)o3)CC2)c(F)c1 (stereo not drawn) [Example 81]	30 to 150	> 120	1000 to 20000			
O=C1CCC(N2C(=O)c3cccc(NCc4cnc(CN5CCOCC5)o4)c3C2=O)C(=O)N1 (stereo not drawn) [Example 82]	> 150	> 120	< 1000			
O=C1CCC(N2C(=O)c3cccc(NCc4cnc(CN5CCC(N6CCOCC6)CC5)o4)c3C2=O)C(=O)N1 (stereo not drawn) [Example 87]	30 to 150	> 120	> 20000			
CN1CCN(Cc2ncc(CNc3cccc4c3C(=O)N(C3CCC(=O)NC3=O)C4=O)o2)CC1 (stereo not drawn) [Example 91]	> 150	> 120	1000 to 20000			
O=C1CCC(N2C(=O)c3cccc(NCc4cnc(-c5ccccc5Cl)o4)c3C2=O)C(=O)N1 (stereo not drawn) [Example 92, 4-(((2-(2-Chlorophenyl)oxazol-5-yl)methyl)amino)-2-(2,6-Dioxopiperidine-3-yl)isoindoline-1,3-dione]				< 15	> 120	< 1000
O=C1CCC(N2C(=O)c3cccc(NCc4cnc(-c5ccc(F)cc5)o4)c3C2=O)C(=O)N1 (stereo not drawn) [Example 93, 2-(2,6-Dioxopiperidine-3-yl)-4-(((2-(4-Fluorophenyl)oxazol-5-yl)methyl)amino)isoindoline-1,3-dione]				< 15	< 60	< 1000
O=C1CCC(N2C(=O)c3cccc(NCc4ncc(-c5ccccc5F)o4)c3C2=O)C(=O)N1 (stereo not drawn) [Example 95, 2-(2,6-Dioxopiperidine-3-yl)-4-(((5-(2-Fluorophenyl)oxazol-2-yl)methyl)amino)isoindoline-1,3-dione]	30 to 150	> 120	> 20000			
O=C1CCC(N2C(=O)c3cccc(NCc4cnc(-c5cccc(OC6CC6)c5)o4)c3C2=O)C(=O)N1 (stereo not drawn) [Example 96, 4-(((2-(Cyclopropoxyphenyl)oxazol-5-yl)methyl)amino)-2-(2,6-Dioxopiperidine-3-yl)isoindoline-1,3-dione]	< 15	> 120	< 1000			
O=C1CCC(N2C(=O)c3cccc(NCc4cnc(-c5ccccc5OC5CC5)o4)c3C2=O)C(=O)N1 (stereo not drawn) [Example 97, 4-(((2-(2-Cyclopropoxyphenyl)oxazol-5-yl)methyl)amino)-2-(2,6-Dioxopiperidine-3-yl)isoindoline-1,3-dione]	< 15	> 120	1000 to 20000			
O=C1CCC(N2C(=O)c3cccc(NCc4nnc(-c5ccccc5)o4)c3C2=O)C(=O)N1 (stereo not drawn) [Example 98, 2-(2,6-Dioxopiperidine-3-yl)-4-(((5-Phenyl-1,3,4-oxadiazol-2-yl)methyl)amino)isoindoline-1,3-dione]	15 to 30	> 120	1000 to 20000			
O=C1CCC(N2C(=O)c3cccc(NCc4nnc(-c5ccccc5)s4)c3C2=O)C(=O)N1 (stereo not drawn) [Example 99, 2-(2,6-Dioxopiperidine-3-yl)-4-(((5-Phenyl-1,3,4-thiadiazol-2-yl)methyl)amino)isoindoline-1,3-dione]	30 to 150	> 120	1000 to 20000			
O=C1CCC(N2C(=O)c3cccc(NCc4cnc(-c5cccc(OC6COC6)c5)o4)c3C2=O)C(=O)N1 (stereo not drawn) [Example 100]	< 15	> 120	1000 to 20000			
O=C1CCC(N2C(=O)c3cccc(NCc4cnc(-c5ccc(OC6CC6)cc5)s4)c3C2=O)C(=O)N1 (stereo not drawn) [Example 103, 4-(((2-(4-Cyclopropoxyphenyl)thiazol-5-yl)methyl)amino)-2-(2,6-Dioxopiperidine-3-yl)isoindoline-1,3-dione]	< 15	> 120	1000 to 20000			

From patent US20250270202A1, “SUBSTITUTED 4-AMINOISOINDOLINE COMPOUND, PREPARATION METHOD THEREFOR, PHARMACEUTICAL COMPOSITION THEREOF, AND USE THEREOF” (SHANGHAI INSTITUTE OF MATERIA MEDICA, CHINESE ACADEMY OF …, priority 2022, published 2025)
